Data: ChEMBL document CHEMBL2074539, “ATP-dependent transport of bilirubin glucuronides by the multidrug resistance protein MRP1 and its hepatocyte canalicular isoform MRP2” (Biochem J, 1997)

Columns and labels:
[1] = molecular target: T1, ATP-binding cassette sub-family C member 2 (Rattus norvegicus, UniProt Q63120); experiment: TP_TRANSPORTER: uptake in bile canalicular membranes from Wistar/TR- rat; format: functional, cell membranes, Bile canalicular membrane
[2] = molecular target: T2, Multidrug resistance-associated protein 1 (Homo sapiens, UniProt P33527); experiment: TP_TRANSPORTER: uptake in membrane vesicle from MRP1-expressing HeLa cells; format: functional, cell membranes
T2 sequence (P33527 whole entry): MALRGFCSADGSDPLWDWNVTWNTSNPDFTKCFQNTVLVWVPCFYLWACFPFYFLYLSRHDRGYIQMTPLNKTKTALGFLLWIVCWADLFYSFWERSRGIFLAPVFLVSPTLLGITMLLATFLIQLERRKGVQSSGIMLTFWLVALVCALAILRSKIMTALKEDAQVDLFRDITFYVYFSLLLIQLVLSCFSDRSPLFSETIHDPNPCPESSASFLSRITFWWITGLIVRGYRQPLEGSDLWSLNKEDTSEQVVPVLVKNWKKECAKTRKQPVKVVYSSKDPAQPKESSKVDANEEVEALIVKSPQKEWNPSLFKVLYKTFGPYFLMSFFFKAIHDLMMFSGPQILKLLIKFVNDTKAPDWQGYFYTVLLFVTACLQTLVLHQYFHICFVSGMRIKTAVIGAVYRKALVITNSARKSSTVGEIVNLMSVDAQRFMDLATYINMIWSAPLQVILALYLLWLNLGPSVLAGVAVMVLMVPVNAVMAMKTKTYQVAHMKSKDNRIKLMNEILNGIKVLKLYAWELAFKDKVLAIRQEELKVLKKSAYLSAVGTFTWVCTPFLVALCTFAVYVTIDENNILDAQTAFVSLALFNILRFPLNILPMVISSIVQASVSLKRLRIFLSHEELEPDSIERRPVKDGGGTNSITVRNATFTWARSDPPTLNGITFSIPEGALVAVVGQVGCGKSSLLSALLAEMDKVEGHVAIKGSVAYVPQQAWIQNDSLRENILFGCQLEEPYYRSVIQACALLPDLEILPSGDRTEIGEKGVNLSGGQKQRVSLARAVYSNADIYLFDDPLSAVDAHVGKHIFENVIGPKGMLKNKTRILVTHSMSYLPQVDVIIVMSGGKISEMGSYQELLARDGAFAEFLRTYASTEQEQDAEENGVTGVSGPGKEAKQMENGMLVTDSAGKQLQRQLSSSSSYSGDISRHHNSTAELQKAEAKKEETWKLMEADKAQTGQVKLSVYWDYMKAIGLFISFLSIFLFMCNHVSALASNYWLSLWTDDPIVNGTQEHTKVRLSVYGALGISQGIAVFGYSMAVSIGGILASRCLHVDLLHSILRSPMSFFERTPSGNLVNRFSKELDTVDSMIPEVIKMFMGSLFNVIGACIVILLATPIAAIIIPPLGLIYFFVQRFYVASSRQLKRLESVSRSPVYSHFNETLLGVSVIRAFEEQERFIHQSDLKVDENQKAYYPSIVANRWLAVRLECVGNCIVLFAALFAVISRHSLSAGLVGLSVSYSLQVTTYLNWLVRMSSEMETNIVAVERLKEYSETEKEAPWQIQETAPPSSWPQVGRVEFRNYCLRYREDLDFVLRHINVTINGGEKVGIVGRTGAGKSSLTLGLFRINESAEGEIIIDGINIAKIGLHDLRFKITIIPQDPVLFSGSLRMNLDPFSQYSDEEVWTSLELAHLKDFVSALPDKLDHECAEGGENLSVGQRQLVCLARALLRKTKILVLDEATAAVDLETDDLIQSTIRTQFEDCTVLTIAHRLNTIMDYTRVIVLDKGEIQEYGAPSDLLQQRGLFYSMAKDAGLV

[3] = molecular target: ATP-binding cassette sub-family C member 2 (Homo sapiens, UniProt Q92887); experiment: TP_TRANSPORTER: inhibition of LTC4 uptake (LTC4: 0.05 uM) in HepG2 cells; format: functional, cell-based
Chain of ATP-binding cassette sub-family C member 2 (Homo sapiens, UniProt Q92887) (Q92887 whole entry): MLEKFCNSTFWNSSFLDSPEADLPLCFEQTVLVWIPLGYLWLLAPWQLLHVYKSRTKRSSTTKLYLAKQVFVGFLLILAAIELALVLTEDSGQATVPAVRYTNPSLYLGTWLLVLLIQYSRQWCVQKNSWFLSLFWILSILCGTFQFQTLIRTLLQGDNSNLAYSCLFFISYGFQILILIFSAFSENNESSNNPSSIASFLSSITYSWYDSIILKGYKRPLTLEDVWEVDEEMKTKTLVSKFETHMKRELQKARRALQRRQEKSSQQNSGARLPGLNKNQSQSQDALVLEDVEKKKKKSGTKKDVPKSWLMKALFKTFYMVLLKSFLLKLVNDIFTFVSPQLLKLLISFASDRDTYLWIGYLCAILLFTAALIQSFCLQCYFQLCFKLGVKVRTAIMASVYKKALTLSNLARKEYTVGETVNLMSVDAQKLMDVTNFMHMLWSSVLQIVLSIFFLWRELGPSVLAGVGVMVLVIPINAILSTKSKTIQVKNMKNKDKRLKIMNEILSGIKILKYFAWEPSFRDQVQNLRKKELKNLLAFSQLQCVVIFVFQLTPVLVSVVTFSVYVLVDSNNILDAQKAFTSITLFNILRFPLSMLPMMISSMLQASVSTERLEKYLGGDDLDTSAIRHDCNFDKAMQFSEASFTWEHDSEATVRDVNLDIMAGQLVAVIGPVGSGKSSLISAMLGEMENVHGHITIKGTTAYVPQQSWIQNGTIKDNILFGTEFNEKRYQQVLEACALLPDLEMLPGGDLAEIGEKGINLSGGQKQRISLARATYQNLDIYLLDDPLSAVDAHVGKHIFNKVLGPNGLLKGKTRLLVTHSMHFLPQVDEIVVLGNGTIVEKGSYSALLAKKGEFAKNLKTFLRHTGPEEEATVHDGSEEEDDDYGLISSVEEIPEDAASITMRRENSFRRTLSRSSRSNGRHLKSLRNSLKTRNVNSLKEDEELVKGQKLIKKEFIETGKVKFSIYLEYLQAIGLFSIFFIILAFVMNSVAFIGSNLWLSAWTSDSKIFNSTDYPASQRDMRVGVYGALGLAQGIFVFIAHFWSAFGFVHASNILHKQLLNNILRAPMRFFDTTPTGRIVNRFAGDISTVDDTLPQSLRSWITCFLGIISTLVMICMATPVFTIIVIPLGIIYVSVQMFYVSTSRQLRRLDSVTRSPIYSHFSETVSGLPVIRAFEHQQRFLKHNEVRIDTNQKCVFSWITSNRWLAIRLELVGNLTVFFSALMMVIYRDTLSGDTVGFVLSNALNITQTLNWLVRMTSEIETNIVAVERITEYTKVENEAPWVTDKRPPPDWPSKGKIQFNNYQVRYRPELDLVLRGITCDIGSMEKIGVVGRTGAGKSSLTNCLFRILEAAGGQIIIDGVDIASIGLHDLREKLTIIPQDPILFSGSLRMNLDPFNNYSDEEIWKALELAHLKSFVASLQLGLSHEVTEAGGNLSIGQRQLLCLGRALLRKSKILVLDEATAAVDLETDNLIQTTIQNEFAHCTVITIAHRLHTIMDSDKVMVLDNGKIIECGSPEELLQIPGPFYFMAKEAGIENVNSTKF

[4] = molecular target: T2, Multidrug resistance-associated protein 1; experiment: TP_TRANSPORTER: inhibition of LTC4 uptake (LTC4: 0.05 uM) in membrane vesicle from MRP1-expressing HeLa cells; format: functional, cell membranes
[5] = molecular target: T1, ATP-binding cassette sub-family C member 2; experiment: TP_TRANSPORTER: inhibition of LTC4 uptake (LTC4: 0.05 uM) in bile canalicular membranes from Wistar rat; format: functional, cell membranes, Bile canalicular membrane

T1 sequence (Q63120 whole entry): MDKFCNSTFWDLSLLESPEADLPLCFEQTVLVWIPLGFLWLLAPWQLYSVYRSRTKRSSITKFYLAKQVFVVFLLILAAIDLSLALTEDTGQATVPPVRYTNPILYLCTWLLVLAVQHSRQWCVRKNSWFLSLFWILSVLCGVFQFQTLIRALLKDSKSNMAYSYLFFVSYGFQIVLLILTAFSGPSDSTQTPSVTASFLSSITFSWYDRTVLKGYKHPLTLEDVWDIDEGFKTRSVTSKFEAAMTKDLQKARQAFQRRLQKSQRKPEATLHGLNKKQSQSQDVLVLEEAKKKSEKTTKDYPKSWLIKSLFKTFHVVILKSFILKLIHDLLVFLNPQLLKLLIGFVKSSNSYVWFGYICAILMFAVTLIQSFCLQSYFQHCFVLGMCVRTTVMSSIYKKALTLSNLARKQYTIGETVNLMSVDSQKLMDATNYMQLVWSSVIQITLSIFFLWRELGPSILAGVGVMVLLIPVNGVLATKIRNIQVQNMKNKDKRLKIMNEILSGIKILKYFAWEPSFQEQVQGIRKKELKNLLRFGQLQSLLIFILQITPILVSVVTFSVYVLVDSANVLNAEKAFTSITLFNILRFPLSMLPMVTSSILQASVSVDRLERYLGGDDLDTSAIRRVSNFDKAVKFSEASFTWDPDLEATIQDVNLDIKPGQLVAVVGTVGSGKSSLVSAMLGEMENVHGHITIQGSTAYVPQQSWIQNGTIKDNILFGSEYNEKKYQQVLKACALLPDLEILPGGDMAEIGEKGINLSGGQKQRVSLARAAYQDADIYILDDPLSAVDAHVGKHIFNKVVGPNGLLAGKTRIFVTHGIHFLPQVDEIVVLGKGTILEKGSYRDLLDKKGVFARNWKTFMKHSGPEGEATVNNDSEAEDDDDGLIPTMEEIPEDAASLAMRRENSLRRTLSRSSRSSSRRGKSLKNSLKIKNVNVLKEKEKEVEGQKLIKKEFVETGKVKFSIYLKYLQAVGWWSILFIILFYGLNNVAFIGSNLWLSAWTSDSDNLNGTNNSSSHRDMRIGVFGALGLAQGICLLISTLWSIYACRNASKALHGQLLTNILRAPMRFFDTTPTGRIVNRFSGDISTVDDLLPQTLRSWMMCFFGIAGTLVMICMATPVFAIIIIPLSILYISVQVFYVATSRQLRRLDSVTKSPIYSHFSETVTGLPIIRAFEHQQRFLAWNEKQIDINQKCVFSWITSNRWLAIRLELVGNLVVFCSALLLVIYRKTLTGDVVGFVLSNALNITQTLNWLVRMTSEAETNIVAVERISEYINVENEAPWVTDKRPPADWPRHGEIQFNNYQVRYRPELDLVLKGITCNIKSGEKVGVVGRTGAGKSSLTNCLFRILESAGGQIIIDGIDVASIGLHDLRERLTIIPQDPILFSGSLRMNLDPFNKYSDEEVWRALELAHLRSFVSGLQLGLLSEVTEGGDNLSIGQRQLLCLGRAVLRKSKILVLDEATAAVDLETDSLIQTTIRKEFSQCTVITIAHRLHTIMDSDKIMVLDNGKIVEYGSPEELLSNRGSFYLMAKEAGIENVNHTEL

| Activity [1] | Activity [2] | IC50 [3] [nM] | IC50 [4] [nM] | IC50 [5] [nM] | Compound |
| --- | --- | --- | --- | --- | --- |
| substrate [+] | substrate [+] | 280 | 420 | 120 | C=CC1=C(C)/C(=C/c2[nH]c(Cc3[nH]c(/C=C4\NC(=O)C(C)=C4C=C)c(C)c3CCC(=O)O[C@@H]3OC(C(=O)O)[C@@H](O)C(O)C3O)c(CCC(=O)O)c2C)NC1=O (stereo not given in full) [BILIRUBIN MONOGLUCURONIDE] |
| substrate [+] | substrate [+] | 400 | 750 | 100 | C=CC1=C(C)/C(=C/c2[nH]c(Cc3[nH]c(/C=C4\NC(=O)C(C)=C4C=C)c(C)c3CCC(=O)O[C@@H]3O[C@@H](C(=O)O)[C@H](O)[C@@H](O)[C@@H]3O)c(CCC(=O)O[C@@H]3O[C@H](C(=O)O)[C@H](O)[C@H](O)[C@@H]3O)c2C)NC1=O |
